From patent publication US8987250B2 (Gilead Sciences, Inc., priority 2012, dated 2015)
pEC50: −log10 of the molar value.

What follows are molecules tested on HIV-IIIb (assay: Test A: Antiviral Assay in MT4 Cells). Conditions: Human immunodeficiency virus 1, IIIB, MT4, 120 h, Table 1; MT-4 cells infected with HIV-IIIb, 5 days of incubation, CellTiter-Glo; read-out: EC50.
Type: cell-based
Summary of the method: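 MT-4 cells pre-infected with HIV-IIIb (0.004 m.o.i.) at 37 °C, then exposed to 3-fold serial compound dilutions (10 concentrations, quadruplicate) in RPMI 1640/10% FBS. After 5 days at 37 °C, viability read by CellTiter-Glo luminescence.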

pEC50	SMILES
7.18	Cc1cc2nc(-c3ccnc(-c4cccc(C(N)=O)c4)c3)sc2c(-c2ccc(Cl)cc2)c1[C@H](OC(C)(C)C)C(=O)O [Compound 155]
7.62	COc1ncc(-c2cccc(-c3nc4cc(C)c([C@H](OC(C)(C)C)C(=O)O)c(-c5ccc(Cl)cc5)c4s3)c2)cn1 [Compound 143]
7.32	Cc1cc2nc(-c3ccnc(-c4cnc5cnn(C)c5c4)c3)sc2c(-c2ccc(Cl)cc2)c1[C@H](OC(C)(C)C)C(=O)O [Compound 129]
8.10	Cc1cc2nc(-c3cncc(-c4ccc5c(cnn5C)c4)n3)sc2c(-c2ccc(Cl)cc2)c1[C@H](OC(C)(C)C)C(=O)O [Compound 131]

SMILES	pEC50
Cc1cc2nc(-c3ccnc(-c4cccc(-c5nnn[nH]5)c4)c3)sc2c(-c2ccc(Cl)cc2)c1[C@H](OC(C)(C)C)C(=O)O [Compound 122, (S)-2-(2-(2-(3-(1H-tetrazol-5-yl)phenyl)pyridin-4-yl)-7-(4-chlorophenyl)-5-methylbenzo[d]thiazol-6-yl)-2-tert-butoxyacetic acid]	5.26
Cc1cc2nc(N3CC(F)C3)sc2c(-c2ccc3c4c(ccnc24)CCO3)c1[C@H](OC(C)(C)C)C(=O)O (atropisomer, axis not shown) [Compound 56, (S)-2-tert-butoxy-2-((S)-7-(2,3-dihydropyrano[4,3,2-de]quinolin-7-yl)-2-(3-fluoroazetidin-1-yl)-5-methylbenzo[d]thiazol-6-yl)acetic acid]	7.20

Same assay, conditions: Human immunodeficiency virus 1, IIIB, MT4, 120 h, Table 2; MT-4 cells infected with HIV-IIIb, 5 days of incubation, CellTiter-Glo; read-out: EC50

SMILES	pEC50
COc1ccc(-c2cc(-c3nc4cc(C)c([C@H](OC(C)(C)C)C(=O)O)c(-c5ccc(Cl)cc5)c4s3)c(C)nn2)cc1OC [Compound 331]	7.36
Cc1cc2nc(N3CCn4c(C)nnc4C3)sc2c(-c2ccc(Cl)cc2)c1[C@H](OC(C)(C)C)C(=O)O [Compound 442]	5.94
Cc1cc2nc(-c3ccc4c(N5CCN(C)CC5)nn(C)c4c3)sc2c(-c2ccc(Cl)cc2)c1[C@H](OC(C)(C)C)C(=O)O [Compound 259, (S)-2-tert-butoxy-2-(7-(4-chlorophenyl)-5-methyl-2-(1-methyl-3-(4-methylpiperazin-1-yl)-1H-indazol-6-yl)benzo[d]thiazol-6-yl)acetic acid]	7.92
Cc1cc2nc(-c3ccnc(-c4ccc5nn(C)cc5n4)c3)sc2c(-c2ccc(Cl)cc2)c1[C@H](OC(C)(C)C)C(=O)O [Compound 370]	8.40
Cc1cc2nc(-c3cc(-c4ccc5c(c4)c(C)nn5C)nc(N4CCN(C)CC4)c3)sc2c(-c2ccc(Cl)cc2)c1[C@H](OC(C)(C)C)C(=O)O [Compound 255, (S)-2-tert-butoxy-2-(7-(4-chlorophenyl)-2-(2-(1,3-dimethyl-1H-indazol-5-yl)-6-(4-methylpiperazin-1-yl)pyridin-4-yl)-5-methylbenzo[d]thiazol-6-yl)acetic acid]	7.92
Cc1cc2nc(-c3ccc4c(c3)nc(C)n4C3CCN(C)CC3)sc2c(-c2ccc(Cl)cc2)c1[C@H](OC(C)(C)C)C(=O)O [Compound 294, (S)-2-(tert-butoxy)-2-(7-(4-chlorophenyl)-5-methyl-2-(2-methyl-1-(1-methylpiperidin-4-yl)-1H-benzo[d]imidazol-5-yl)benzo[d]thiazol-6-yl)acetic acid]	7.44
Cc1cc2nc(-c3cn(C)c(-c4ccc5c(cnn5C)c4)n3)sc2c(-c2ccc(Cl)cc2)c1[C@H](OC(C)(C)C)C(=O)O [Compound 312, (S)-2-tert-butoxy-2-(7-(4-chlorophenyl)-5-methyl-2-(1-methyl-2-(1-methyl-1H-indazol-5-yl)-1H-imidazol-4-yl)benzo[d]thiazol-6-yl)acetic acid]	7.43
Cc1cc2nc(-c3cc(-c4ccc5c(cnn5C)c4)ccn3)sc2c(-c2ccc(Cl)cc2)c1[C@H](OC(C)(C)C)C(=O)O [Compound 375]	6.64
Cc1cc2nc(-c3ccnc(N4CCc5c(c(C)nn5C)C4)c3)sc2c(-c2ccc(Cl)cc2)c1[C@H](OC(C)(C)C)C(=O)O [Compound 224, (S)-2-tert-butoxy-2-(7-(4-chlorophenyl)-2-(2-(1,3-dimethyl-6,7-dihydro-1H-pyrazolo[4,3-c]pyridin-5(4H)-yl)pyridin-4-yl)-5-methylbenzo[d]thiazol-6-yl)acetic acid]	7.92
Cc1cc2nc(-c3ccc4nn(C5COC5)cc4c3)sc2c(-c2ccc(Cl)cc2)c1[C@H](OC(C)(C)C)C(=O)O [Compound 328, (S)-2-tert-butoxy-2-(7-(4-chlorophenyl)-5-methyl-2-(2-(oxetan-3-yl)-2H-indazol-5-yl)benzo[d]thiazol-6-yl)acetic acid]	7.36
Cc1cc2nc(-c3ccnc(-c4ccc5c(cnn5C5CNC5)c4)c3)sc2c(-c2ccc(Cl)cc2)c1[C@H](OC(C)(C)C)C(=O)O [Compound 179, (S)-2-(2-(2-(1-(azetidin-3-yl)-1H-indazol-5-yl)pyridin-4-yl)-7-(4-chlorophenyl)-5-methylbenzo[d]thiazol-6-yl)-2-tert-butoxyacetic acid]	7.14
Cc1cc2nc(-n3ccc4ccncc4c3=O)sc2c(-c2ccc(Cl)cc2)c1[C@H](OC(C)(C)C)C(=O)O [Compound 195, (S)-2-tert-butoxy-2-(7-(4-chlorophenyl)-5-methyl-2-(1-oxo-2,7-naphthyridin-2(1H)-yl)benzo[d]thiazol-6-yl)acetic acid]	7.96
Cc1cc2nc(N3CCc4ccncc4C3)sc2c(-c2ccc(Cl)cc2)c1[C@H](OC(C)(C)C)C(=O)O [Compound 434]	7.38
Cc1cc2nc(-c3ccc4nc[nH]c4c3)sc2c(-c2ccc(Cl)cc2)c1[C@H](OC(C)(C)C)C(=O)O [Compound 287, (S)-2-(2-(1H-benzo[d]imidazol-6-yl)-7-(4-chlorophenyl)-5-methylbenzo[d]thiazol-6-yl)-2-(tert-butoxy)acetic acid]	6.95
Cc1cc2nc(-c3nccc(-c4ccc5c(cnn5C)c4)n3)sc2c(-c2ccc(Cl)cc2)c1[C@H](OC(C)(C)C)C(=O)O [Compound 357]	7.92
Cc1cc2nc(-c3ccc4c(c3)c(C3CCN(C)CC3)nn4C)sc2c(-c2ccc(Cl)cc2)c1[C@H](OC(C)(C)C)C(=O)O [Compound 268, (S)-2-tert-butoxy-2-(7-(4-chlorophenyl)-5-methyl-2-(1-methyl-3-(1-methylpiperidin-4-yl)-1H-indazol-5-yl)benzo[d]thiazol-6-yl)acetic acid]	7.92
Cc1cc2nc(-n3ccnc(-c4ccc5c(cnn5C)c4)c3=O)sc2c(-c2ccc(Cl)cc2)c1[C@H](OC(C)(C)C)C(=O)O [Compound 273, (S)-2-tert-butoxy-2-(7-(4-chlorophenyl)-5-methyl-2-(3-(1-methyl-1H-indazol-5-yl)-2-oxopyrazin-1(2H)-yl)benzo[d]thiazol-6-yl)acetic acid]	7.28
Cc1cc2nc(-c3ccc4c(c3)nc(C(C)C)n4C)sc2c(-c2ccc(Cl)cc2)c1[C@H](OC(C)(C)C)C(=O)O [Compound 411]	8.10
Cc1cc2nc(-c3ccn4c(C)nc(C)c4c3)sc2c(-c2ccc(Cl)cc2)c1[C@H](OC(C)(C)C)C(=O)O [Compound 319, (S)-2-tert-butoxy-2-(7-(4-chlorophenyl)-2-(1,3-dimethylimidazo[1,5-a]pyridin-7-yl)-5-methylbenzo[d]thiazol-6-yl)acetic acid]	8.30
Cc1cc2nc(-c3ccc4c(cnn4C(C)C)c3)sc2c(-c2ccc(Cl)cc2)c1[C@H](OC(C)(C)C)C(=O)O [Compound 353]	7.51
CCC(CC)N1CCN(c2nccc(-c3nc4cc(C)c([C@H](OC(C)(C)C)C(=O)O)c(-c5ccc(Cl)cc5)c4s3)n2)CC1 [Compound 464, (S)-2-tert-butoxy-2-(7-(4-chlorophenyl)-5-methyl-2-(2-(4-(pentan-3-yl)piperazin-1-yl)pyrimidin-4-yl)benzo[d]thiazol-6-yl)acetic acid]	7.92
COc1ccc(-c2cc(-c3nc4cc(C)c([C@H](OC(C)(C)C)C(=O)O)c(-c5ccc(Cl)cc5)c4s3)cnn2)cc1OC [Compound 338]	7.96
Cc1cc2nc(-c3ccnc(-c4ccc5c(c4)n(C)c(=O)n5C)c3)sc2c(-c2ccc(Cl)cc2)c1[C@H](OC(C)(C)C)C(=O)O [Compound 183, (S)-2-tert-butoxy-2-(7-(4-chlorophenyl)-2-(2-(1,3-dimethyl-2-oxo-2,3-dihydro-1H-benzo[d]imidazol-5-yl)pyridin-4-yl)-5-methylbenzo[d]thiazol-6-yl)acetic acid]	7.74
Cc1cc2nc(-c3cccc4c3OCC(=O)N4)sc2c(-c2ccc(Cl)cc2)c1[C@H](OC(C)(C)C)C(=O)O [Compound 388]	7.55
Cc1cc2nc(N3CCN(C(=O)OC(C)(C)C)C(c4ccc5c(cnn5C)c4)C3)sc2c(-c2ccc(Cl)cc2)c1[C@H](OC(C)(C)C)C(=O)O (stereo partly drawn) [Compound 276, (2S)-2-tert-butoxy-2-(2-(4-(tert-butoxycarbonyl)-3-(1-methyl-1H-indazol-5-yl)piperazin-1-yl)-7-(4-chlorophenyl)-5-methylbenzo[d]thiazol-6-yl)acetic acid]	7.43

Same assay, conditions: Table 1; MT-4 cells infected with HIV-IIIb, 5 days of incubation, CellTiter-Glo; read-out: EC50

SMILES	pEC50
Cc1cc2nc(-c3cccc(-c4ccc5c(cnn5C)c4)c3)sc2c(-c2ccc3c4c(ccnc24)CCO3)c1[C@H](OC(C)(C)C)C(=O)O (atropisomer, axis not shown) [Compound 164]	6.32
Cc1cc2nc(N3CC(F)(F)C3)sc2c(-c2ccc3c4c(ccnc24)CCO3)c1[C@H](OC(C)(C)C)C(=O)O (atropisomer, axis not shown) [Compound 53, (S)-2-tert-butoxy-2-((R)-2-(3,3-difluoroazetidin-1-yl)-7-(2,3-dihydropyrano[4,3,2-de]quinolin-7-yl)-5-methylbenzo[d]thiazol-6-yl)acetic acid]	4.43
